In article PMC7824897, “Selection of the First ^99mTc-Labelled Somatostatin Receptor Subtype 2 Antagonist for Clinical Translation—Preclinical Assessment of Two Optimized Candidates” (Pharmaceuticals, 2020):
Where a SMILES comes first, the peptide text is derived from it. Bridges are numbered along the chain shown (N, C = ends). [ ]: non-standard residue; d: D form. The star is where a group is joined. dPhe(4-NHCONH2) = NC(=O)Nc1ccc(C[C@@H](N)C(=O)O)cc1; Phe(4-Cl) = N[C@@H](Cc1ccc(Cl)cc1)C(=O)O; X1 = NCCNCC(CNCCN)C(=O)*

How the values were obtained:
[1] = molecular target: T1, HEK-SST2 cells (human SST2 receptor) (Homo sapiens, UniProt P30874); test: Internalization and cell-surface binding in HEK-SST2 cells; format: cell-based
T1 construct: expressed in transfected cells; host or cells: HEK293 (HEK-SST2), provided by Prof; Stefan Schulz, Jena University Hospital

[2] = molecular target: T1, HEK-SST2 cells (human SST2 receptor); test: Dissociation of cell-surface bound radiotracer with or without competitor; format: cell-based
in vivo = settings: female, mouse, 20 pmol, total radioactivity
[3] = parameters: species or system human
Excerpt: To account for various possible locations of the tumour, we used two S-values. One was the value for the liver and is representative for the liver lesions. Other was the “average abdominal S-value”, which was the average S-value for the following organs: stomach, liver, gallbladder, spleen, pancreas, small intestine, kidneys, large intestine, and adrenal glands. Estimated dose to various organs, average total body dose and effective dose are summarized in Table 3 for both radiotracers and two typical tumour locations.
Dosimetric calculations were based on the biodistribution of [^99mTc]Tc-TECANT-1 and [^99mTc]Tc-TECANT-2 (Table 3). […] Percent of injected activity per organ in a human model was evaluated according to the animal data extrapolation model:(2) (%IA/organ)human=[(%IA/g)mouse×Mmouse(g)]×(m(g)/M(kg))human
Here m is the organ mass and M is the total body weight of mouse or human. Average total weight of the mouse was measured, while human phantom has the total weight of 73 kg. The %IA/g and %IA/organ is the percentage of the injected activity concentration (i.e., per gram of tissue) and per organ, respectively. For the tumour, we assumed that the percent of injected activity uptake into the tumour is the same for mouse and human.
Subsequently, percentage of the injected activity per organ was folded with the decay curve of ^99mTc and interpolated with the exponential function. The interpolation function was used to estimate initial %ID/organ and the time-integrated activity concentration (TIAC). Absorbed dose per injected activity for various organs was calculated with the TIAC factors and S-values for a standard person from the OpenDose project. Effective dose was evaluated according to the ICRP 103 recommendations.
We also assumed that the remaining activity from the organs and tumour ends up in the bladder.

[4] = format: physicochemical; settings: pH 7.4
Method: Determination of the distribution coefficient (log D) was performed by the shake-flask method in 1:1 mixture of octanol/Phosphate buffered saline (PBS). Then, 50 µL of [^99mTc]Tc-TECANT-1 or [^99mTc]Tc-TECANT-2 solution was diluted up to 500 µL with PBS (pH 7.4; 8 mM phosphate). Next, 20 µL of this solution was added to six eppendorf tubes, each containing 500 µL octanol and 480 µL PBS. The samples were vortexed for 15 min at 1400 rpm followed by centrifugation for 2 min at 4500 rpm. Aliquots of 100 µL from each phase were taken and measured in a γ-counter. The log D was calculated as the average of the logarithmic values (n = 3, six technical replicates) of the ratio between the radioactivity in the octanol and the PBS phase.

[5] = athymic nude-Foxn1^nu/Foxn1^+, Biodistribution Heart
[6] = athymic nude-Foxn1^nu/Foxn1^+, Biodistribution Liver
[7] = athymic nude-Foxn1^nu/Foxn1^+, Biodistribution Lung
[8] = athymic nude-Foxn1^nu/Foxn1^+, Biodistribution Pancreas
[9] = athymic nude-Foxn1^nu/Foxn1^+, Biodistribution Spleen
[10] = athymic nude-Foxn1nu/Foxn1+, Biodistribution Adrenals
[11] = athymic nude-Foxn1nu/Foxn1+, Biodistribution Blood
[12] = athymic nude-Foxn1nu/Foxn1+, Biodistribution Bone
[13] = athymic nude-Foxn1nu/Foxn1+, Biodistribution HEK-SST2 (+) tumour uptake
[14] = athymic nude-Foxn1nu/Foxn1+, Biodistribution Intestine
[15] = athymic nude-Foxn1nu/Foxn1+, Biodistribution Kidneys
[16] = athymic nude-Foxn1nu/Foxn1+, Biodistribution Muscle
[17] = athymic nude-Foxn1nu/Foxn1+, Biodistribution Pituitary
[18] = athymic nude-Foxn1nu/Foxn1+, Biodistribution Stomach

T1 sequence (P30874 whole entry): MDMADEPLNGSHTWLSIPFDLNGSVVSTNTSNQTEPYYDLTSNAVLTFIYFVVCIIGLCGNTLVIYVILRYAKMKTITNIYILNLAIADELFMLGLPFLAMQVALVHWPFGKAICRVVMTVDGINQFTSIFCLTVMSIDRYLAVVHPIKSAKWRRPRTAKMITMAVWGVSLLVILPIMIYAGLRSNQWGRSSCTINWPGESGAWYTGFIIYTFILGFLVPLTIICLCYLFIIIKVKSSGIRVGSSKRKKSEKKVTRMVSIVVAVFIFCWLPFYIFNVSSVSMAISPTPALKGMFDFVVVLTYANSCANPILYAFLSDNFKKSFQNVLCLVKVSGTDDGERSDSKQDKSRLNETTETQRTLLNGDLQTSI

internalization (internalized fraction) ([1]; 30 min, 37 °C): 4.1 ± 0.1%
internalization (internalized fraction) ([1]; 4 h, 37 °C): 13.4 ± 1.7%
cell surface binding ([1]; 4 h, 37 °C, % of total radioactivity added): 50.7 ± 1.7%
cellular uptake ([1]; at 2 h/37 °C): > 50%
fraction dissociated ([2]; HEK-SST2 cells, at 2 h/37 °C): < 30%
estimated dissociation half-life ([2]; absence of competitor): 98 min
total binding remaining (dissociation assay) ([2]; after 4 h, 37 °C, absence of competitor): 58.8 ± 3.3%
estimated dissociation half-life ([2]; presence of competitor): 19 min
bound fraction still remaining in the cells ([2]; presence of excess of the competitor, 37 °C): 7.9 ± 2.2%
tissue uptake at 1 h (in vivo; [5]): 0.71 ± 0.1 %ID/g
tissue uptake at 4 h (in vivo; [5]): 0.24 ± 0.06 %ID/g
tissue uptake at 24 h (in vivo; [5]): 0.05 ± 0.02 %ID/g
tissue uptake at 1 h (in vivo; [6]): 3.13 ± 0.43 %ID/g
tissue uptake at 4 h (in vivo; [6]): 1.9 ± 0.41 %ID/g
tissue uptake at 24 h (in vivo; [6]): 0.6 ± 0.1 %ID/g
tissue uptake at 1 h (in vivo; [7]): 8.94 ± 3.92 %ID/g
tissue uptake at 4 h (in vivo; [7]): 3.07 ± 1.16 %ID/g
tissue uptake at 24 h (in vivo; [7]): 0.26 ± 0.04 %ID/g
tissue uptake at 1 h (in vivo; [8]): 47.8 ± 7.86 %ID/g
tissue uptake at 4 h (in vivo; [8]): 16.9 ± 3.97 %ID/g
tissue uptake at 24 h (in vivo; [8]): 1.08 ± 0.19 %ID/g
tissue uptake at 1 h (in vivo; [9]): 1.3 ± 0.41 %ID/g
tissue uptake at 4 h (in vivo; [9]): 0.57 ± 0.11 %ID/g
tissue uptake at 24 h (in vivo; [9]): 0.2 ± 0.01 %ID/g
tissue uptake at 1 h (in vivo; [10]): 7.11 ± 3.04 %ID/g
tissue uptake at 4 h (in vivo; [10]): 4.36 ± 1.88 %ID/g
tissue uptake at 24 h (in vivo; [10]): 0.85 ± 0.18 %ID/g
tissue uptake at 1 h (in vivo; [11]): 0.79 ± 0.09 %ID/g
tissue uptake at 4 h (in vivo; [11]): 0.23 ± 0.05 %ID/g
tissue uptake at 24 h (in vivo; [11]): 0.03 %ID/g
tissue uptake at 1 h (in vivo; [12]): 1.41 ± 0.77 %ID/g
tissue uptake at 4 h (in vivo; [12]): 0.59 ± 0.23 %ID/g
tissue uptake at 24 h (in vivo; [12]): 0.35 ± 0.07 %ID/g
tissue uptake at 1 h (in vivo; [13]): 21 ± 3.92 %ID/g
tissue uptake at 4 h (in vivo; [13]): 26 ± 1.33 %ID/g
tissue uptake at 24 h (in vivo; [13]): 19 ± 2 %ID/g
tissue uptake at 4 h (in vivo; athymic nude-Foxn1nu/Foxn1+, Biodistribution HEK-SST2 (−) tumour uptake): 0.88 ± 0.37 %ID/g
tissue uptake at 1 h (in vivo; [14]): 6.48 ± 4.37 %ID/g
tissue uptake at 4 h (in vivo; [14]): 2.4 ± 1.9 %ID/g
tissue uptake at 24 h (in vivo; [14]): 0.31 ± 0.08 %ID/g
tissue uptake at 1 h (in vivo; [15]): 16.3 ± 1.83 %ID/g
tissue uptake at 4 h (in vivo; [15]): 12.6 ± 2.54 %ID/g
tissue uptake at 24 h (in vivo; [15]): 2.42 ± 0.2 %ID/g
tissue uptake at 1 h (in vivo; [16]): 0.23 ± 0.05 %ID/g
tissue uptake at 4 h (in vivo; [16]): 0.12 ± 0.06 %ID/g
tissue uptake at 24 h (in vivo; [16]): 0.05 ± 0.01 %ID/g
tissue uptake at 1 h (in vivo; [17]): 9.71 ± 2.81 %ID/g
tissue uptake at 4 h (in vivo; [17]): 6.66 ± 3.67 %ID/g
tissue uptake at 24 h (in vivo; [17]): 4.35 ± 2.87 %ID/g
tissue uptake at 1 h (in vivo; [18]): 36.5 ± 7.89 %ID/g
tissue uptake at 4 h (in vivo; [18]): 13.6 ± 3.86 %ID/g
tissue uptake at 24 h (in vivo; [18]): 1.42 ± 0.27 %ID/g
Average total body dose [3]: 3.2 μGy/MBq
Dose Bone [3]: 3.9 μGy/MBq
Dose Muscle [3]: 2.4 μGy/MBq
Dose Red marrow [3]: 3.3 μGy/MBq
Dose Small intestine wall [3]: 1.9 μGy/MBq
biological half-life of clearance of remaining activity (rest of the body) to the bladder [3]: 9.7 h
effective dose [3]: 4.9 mSv
logD [4]: -2.53 ± 0.19
SMILES: C[C@@H](O)[C@@H]1NC(=O)[C@H](CCCCN)NC(=O)[C@@H](Cc2ccc(NC(N)=O)cc2)NC(=O)[C@H](Cc2ccc(O)cc2)NC(=O)[C@H](NC(=O)[C@H](Cc2ccc(Cl)cc2)NC(=O)C(CNCCN)CNCCN)CSSC[C@@H](C(=O)N[C@H](Cc2ccc(O)cc2)C(N)=O)NC1=O [[^99mTc]Tc-TECANT-1, metal not drawn] (X1-[Phe(4-Cl)][dC]Y[dPhe(4-NHCONH2)]KTC[dY]-NH2; disulfide 2-7)
